# Results: patent US10662445B2, “Process for the production of bio-butanol by fermentation of glycosidic waste matter” (priority 2018, dated 2020)
# What was measured:
# [1] = Organic-solvent extraction of microbial inhibitors from an agro-waste hydrolysate mimic; type: physicochemical; conditions: for HMF remaining after extraction: standard 2.723 g/L; for Furfural remaining after extraction: standard 2.956 g/L; for TRS (total reducing sugar) after extraction: standard 52.00 g/L; for Inhibitor extraction, phase separation by centrifugal force / Inhibitor extraction, phase separation by separating funnel: solvent bis-(2-ethylhexyl) sebacate
# Description: Media composition was designed according to the inhibitory compound limit concentration reported in the literature for bio-butanol producing solventogenic Clostridia (Baral et al. Microbial inhibitors: formation and effects on acetone-butanol-ethanol fermentation of lignocellulosic biomass. Applied microbiology and biotechnology, Vol. 98(22), 2014: 9151-9172; Qureshi et al. Production of butanol (a biofuel) from agricultural residues: Part I—Use of barley straw hydrolysate. Biomass and bioenergy, Vol. 34(4), 2010: 559-565). Different volume ratio of the hydrolysate mimic and organic solvents, such as (5:1), (3:1), (2:1), (1:1) and (1:2) (vaqueous:vorganic) were tried in order to minimize extractant expenditure. Organic and aqueous phase mixing was carried out by a propeller impeller. Rotation rate (100, 200, 250, 300 and 400 rpm) and operation-time (15, 30, 45, 60 and 90 min) were tested at room temperature (25° C.). A comparative study between settling through separating funnel vs. centrifugal force assisted separation was also made to guarantee an optimal recovery of the broth phase.
# A complex mixture of several reduced sugar compounds (e.g. as glucose, fructose, and xylose) and microbial inhibitors (furfural, HMF, acetic acid, levulinic acid, vanillin, vanillic acid, feluric acid and syringaldehyde) were produced during the pretreatment step (hydrolysis). In order to analyse these compounds, liquid samples were collected and analyzed using liquid chromatography-mass spectrometry (LC-MS) and liquid chromatography-tandem mass spectrometry (LC/MS-MS) equipped with a ZORBAX Carbohydrate column (5 μm, 150×4.6 mm ID column) (Agilent Technologies, USA) with D6 glucose as the internal standard and a Biobasic-18 column (5 μm, 250×4.6 mm ID) (Agilent Technologies, USA) with phenylethanol-D5 as the internal standard. […] Methanol water (8:2) and acetonitrile water (8.5:1.5) were used to dilute the sample before inhibitor and carbohydrate analysis. […]
# [2] = system: Clostridium beijerinckii NRRL B-466 (CB); experiment: Bio-compatibility (solvent toxicity) batch ABE fermentation, CB
# Protocol: (§1) Clostridium acetobutylicum NRRL B-582 (ATCC-824) (CA) and Clostridium beijerinckii NRRL B-466(CB) were considered for current investigation to produce bio-butanol from different brewery industry wastes. They were kindly provided by Agricultural Research Station, USDA (USA). The microorganisms were grown and maintained in peptone-yeast extract-glucose (PYG) media under anaerobic condition (vegetative growth) at 37±1° C. and 150 rpm for 24 h and 17 h, respectively, before being transferred into the fermentation medium. The medium (g L^−1) comprised: glucose (10); yeast extract (10); peptone (5); tryptone (5); cysteine-HCl (0.5); K2HPO4 (2.04); KH2PO4 (0.04); FeSO4*7H2O (1.1×10^−3); CaCl2 (8×10^−3); MgSO4*7H2O (0.0192); NaCl (0.08); and NaHCO3 (0.4). 125 mL serum bottles (working volume 50 mL) were used for both butanol production and inoculum development (Maiti et al., January 2016, Maiti et al., August 2015). Anaerobic conditions were maintained within the bottle by sparging N2 for 10 minutes and immediately sealed by an aluminum crimp seal containing silicone septum (Fisher scientific, Canada) by means of a hand operated crimper (E-Z Crimper™, VWR, Ontario, Canada). Prior to culture development, the medium was sterilized for 20 min at 121±1° C. About 10% (v/v) (dry cell weight […]) of microbial culture in its exponential phase of growth (OD600nm=1.3-1.5) was used as inoculum for all the experiments conducted in this investigation.
# (§2) Set-1, set-4 and set-5 were included as control-1, control-2 and control-3 respectively. All the experiments were carried out in P2 nutrient media as described later in batch fermentation section.
# (§3) Batch fermentation was performed in 125 mL serum vials (working volume of 50 mL) at pH 6.7±0.1. The P2 medium was sterilized at 121±1° C. for 20 min. Prior to fermentation, anaerobic conditions for each bottle were maintained by sparging the medium with N2 for 10 minutes and immediately closing with an aluminum crimp seal containing silicon septum (Fisher scientific, Canada) by means of a hand-operated crimper (E-Z Crimper™, VWR, Ontario, Canada). A modified P2 medium, with the following composition, was used for fermentation experiments: Buffer→KH2PO450 g/L, K2HPO450 g/L, ammonium acetate 220 g/L; Minerals→MgSO4*7H2O 20 g/L, MnSO4*H2O 1 g/L, FeSO4*7H2O 1 g/L, NaCl 1 g/L; Vitamins→thiamin 0.1 g/L, biotin 0.001 g/L). Since brewery industry wastes were already enriched with yeast protein, no additional yeast protein nor peptone were supplemented.
# (§4) The fermentation was initiated by inoculating the P2 medium with the seed cultures at a ratio of 10% (v:v). […] Fermentation experiments were performed at 37±1° C. with shaking at 150 rpm for 72 h in duplicates. 1 mL of culture broth from each batch assay was used for metabolite analysis. Data described here present average values from duplicate runs for duplicate samples.
# (§5) To determine the different metabolites produced during ABE fermentation (i.e. butanol, ethanol, acetone, butyric acid, and acetic acid) liquid samples from each fermentation broth were collected and analyzed using gas chromatography (GC) (GC7890B, Agilent Technologies, USA) equipped with a FID detector and a HP-INNOWax™ column (30 m, 0.25 mm ID, 0.25 μm df). Isobutanol was used as the internal standard. Before injecting the sample (1 mL) in the GC for products analysis, the sample was centrifuged for 5 minutes at 7650×g and the supernatant was filtered by 0.45 μm syringe filter. The GC conditions comprised: helium carrier gas at a flow rate of 1 mL/min with a temperature ramp from the initial temperature of 50° C. to 150° C.
# [3] = system: Clostridium acetobutylicum NRRL B-582 (ATCC-824) (CA); experiment: Bio-compatibility (solvent toxicity) batch ABE fermentation, CA; conditions: CA
# Protocol: as §1, §2, §3, §4, §5
# [4] = Extraction 1, Vaqueous:Vorganic = 2:1, hydrolysate mimic
# [5] = Extraction 1, Vaqueous:Vorganic = 2:1, hydrolysate mimic, standard 565.9 mg/L
# [6] = Extraction 2, Vaqueous:Vorganic = 2:1, hydrolysate mimic
# [7] = Extraction 3, Vaqueous:Vorganic = 2:1, hydrolysate mimic
# [8] = Extraction 4, Vaqueous:Vorganic = 2:1, hydrolysate mimic
# [9] = first stage, ratio 2:1, hydrolysate mimic
# [10] = (5-15%) solvent supplemented to 52 g/L glucose
# [11] = Control-1 (52 g/L glucose) + (5-15)% solvent, 72 h, P2 medium
# [12] = homogenizer rotational speed 100 rpm
# [13] = homogenizer rotational speed 200 rpm
# [14] = homogenizer rotational speed 250 rpm
# [15] = homogenizer rotational speed 300 rpm
# [16] = homogenizer rotational speed 400 rpm
compound,measurement,setting,value
CCCCCCCCCC(C)=O [2-undecanone],Ferulic acid removal,[1]; [4],99%
same,Furfural removal,[1]; [4],87%
same,HMF removal,[1]; [4],90%
same,Syringaldehyde removal,[1]; [4],97%
same,TRS removal,[1]; [4],0%
same,Vanillic acid removal,[1]; [4],95%
same,Vanillin removal,[1]; [4],98%
same,Syringaldehyde remaining after extraction,"[1]; Extraction 1, Vaqueous:Vorganic = 2:1, hydrolysate mimic, standard 300.2 mg/L",7.6 mg/L
same,Ferulic acid remaining after extraction,"[1]; Extraction 1, Vaqueous:Vorganic = 2:1, hydrolysate mimic, standard 485.6 mg/L",0.7 mg/L
same,Vanillic acid remaining after extraction,[1]; [5],9.8 mg/L
same,Vanillin remaining after extraction,[1]; [5],10.3 mg/L
same,HMF remaining after extraction,[1]; [4],0.267 g/L
same,Furfural remaining after extraction,[1]; [4],0.392 g/L
same,TRS (total reducing sugar) after extraction,[1]; [4],52.00 g/L
same,Ferulic acid removal,[1]; [6],100%
same,Furfural removal,[1]; [6],97%
same,HMF removal,[1]; [6],97%
same,Syringaldehyde removal,[1]; [6],100%
same,TRS removal,[1]; [6],0%
same,Vanillic acid removal,[1]; [6],100%
same,Vanillin removal,[1]; [6],100%
same,HMF remaining after extraction,[1]; [6],0.077 g/L
same,Furfural remaining after extraction,[1]; [6],0.082 g/L
same,TRS (total reducing sugar) after extraction,[1]; [6],52.00 g/L
same,Ferulic acid removal,[1]; [7],100%
same,Furfural removal,[1]; [7],100%
same,HMF removal,[1]; [7],100%
same,Syringaldehyde removal,[1]; [7],100%
same,TRS removal,[1]; [7],0%
same,Vanillic acid removal,[1]; [7],100%
same,Vanillin removal,[1]; [7],100%
same,TRS (total reducing sugar) after extraction,[1]; [7],52.00 g/L
same,Ferulic acid removal,[1]; [8],100%
same,Furfural removal,[1]; [8],100%
same,HMF removal,[1]; [8],100%
same,Syringaldehyde removal,[1]; [8],100%
same,TRS removal,[1]; [8],0%
same,Vanillic acid removal,[1]; [8],100%
same,Vanillin removal,[1]; [8],100%
same,TRS (total reducing sugar) after extraction,[1]; [8],52.00 g/L
same,Extraction efficiency for phenolic compounds,[1]; [9],higher than 95%
same,Extraction efficiency towards furan derivatives,[1]; [9],87-90%
same,Reduction of bio-butanol generation in comparison with set-1,[2]; [10],67%
same,ABE,[2]; [11],4.28 ± 0.4 g/L
same,Butanol,[2]; [11],3.11 ± 0.3 g/L
same,Reduction of bio-butanol generation in comparison with set-1,[3]; [10],70%
same,ABE,[3]; [11],3.82 ± 0.2 g/L
same,Butanol,[3]; [11],2.77 ± 0.12 g/L
"COc1cc(C=O)ccc1O [Vanillin, vanillin]","Inhibitor extraction, phase separation by centrifugal force",[1]; [12],95%
same,"Inhibitor extraction, phase separation by separating funnel",[1]; [12],93%
same,"Inhibitor extraction, phase separation by centrifugal force",[1]; [13],95%
same,"Inhibitor extraction, phase separation by separating funnel",[1]; [13],93%
same,"Inhibitor extraction, phase separation by centrifugal force",[1]; [14],97%
same,"Inhibitor extraction, phase separation by separating funnel",[1]; [14],95%
same,"Inhibitor extraction, phase separation by centrifugal force",[1]; [15],97%
same,"Inhibitor extraction, phase separation by separating funnel",[1]; [15],97%
same,"Inhibitor extraction, phase separation by centrifugal force",[1]; [16],96%
same,"Inhibitor extraction, phase separation by separating funnel",[1]; [16],97%
"O=Cc1ccco1 [Furfural, furfural]","Inhibitor extraction, phase separation by centrifugal force",[1]; [12],68%
same,"Inhibitor extraction, phase separation by separating funnel",[1]; [12],65%
same,"Inhibitor extraction, phase separation by centrifugal force",[1]; [13],69%
same,"Inhibitor extraction, phase separation by separating funnel",[1]; [13],68%
same,"Inhibitor extraction, phase separation by centrifugal force",[1]; [14],78%
same,"Inhibitor extraction, phase separation by separating funnel",[1]; [14],75%
same,"Inhibitor extraction, phase separation by centrifugal force",[1]; [15],78%
same,"Inhibitor extraction, phase separation by separating funnel",[1]; [15],76%
same,"Inhibitor extraction, phase separation by centrifugal force",[1]; [16],80%
same,"Inhibitor extraction, phase separation by separating funnel",[1]; [16],78%
"O=Cc1ccc(CO)o1 [HMF, hydroxymethyl furfural]","Inhibitor extraction, phase separation by centrifugal force",[1]; [12],71%
same,"Inhibitor extraction, phase separation by separating funnel",[1]; [12],71%
same,"Inhibitor extraction, phase separation by centrifugal force",[1]; [13],74%
same,"Inhibitor extraction, phase separation by separating funnel",[1]; [13],73%
same,"Inhibitor extraction, phase separation by centrifugal force",[1]; [14],79%
same,"Inhibitor extraction, phase separation by separating funnel",[1]; [14],78%
same,"Inhibitor extraction, phase separation by centrifugal force",[1]; [15],82%
same,"Inhibitor extraction, phase separation by separating funnel",[1]; [15],80%
same,"Inhibitor extraction, phase separation by centrifugal force",[1]; [16],84%
same,"Inhibitor extraction, phase separation by separating funnel",[1]; [16],80%
